Where two headings read alike, the source gives them in different places.
Experiments:
human full-length HSP90 = target: T1, human full-length HSP90 (Homo sapiens, UniProt P08238); experiment: Fluorescence polarization (FP) binding assay; conditions: competitive displacement of fluorescein-labelled probe from human full-length HSP90, activity range
T1 construct: E. coli expressed human full-length HSP90 protein, purified >95%; made in house; host or cells: E. coli
Excerpt: Fluorescence Polarization Assay
Fluorescence polarization {also known as fluorescence anisotropy} measures the rotation of a fluorescing species in solution, where the larger molecule the more polarized the fluorescence emission. When the fluorophore is excited with polarized light, the emitted light is also polarized. The molecular size is proportional to the polarization of the fluorescence emission.
The fluoroscein-labelled probe—
binds to HSP90 {full-length human, full-length yeast or N-terminal domain HSP90} and the anisotropy {rotation of the probe:protein complex} is measured.
Test compound is added to the assay plate, left to equilibrate and the anisotropy measured again. Any change in anisotropy is due to competitive binding of compound to HSP90, thereby releasing probe.
Stored at room temperature. • 3) BSA (bovine serum albumen) 10 mg/ml (New England Biolabs # B9001S) • 4) 20 mM probe in 100% DMSO stock concentration. Stored in the dark at RT. Working concentration is 200 nM diluted in AR water and stored at 4° C.
• 1) Add 100 μl×buffer to wells 1A and 12A(=FP BLNK) • 2) Prepare assay mix—all reagents are kept on ice with a lid on the bucket as the probe is light-sensitive.
• 3) Aliquot 100 μl assay mix to all other wells • 4) Seal plate and leave in dark at room temp for 20 minutes to equilibrate
This gives 2.5 mM {50×} stock cpd−assuming cpds 20 mM. • 4) Repeat for wells A2 to A10. Control in columns 11 and 12. • 5) Transfer 5 μl from row A to row B—not column 12. Mix well. • 6) Transfer 5 μl from row B to row C. […] Add 2 μl of 100 mM standard cpd to wells B12-H12 {is positive control} • 13) The Z′ factor is calculated from zero controls and positive wells.

BT474 cells = experiment: Sulforhodamine B (SRB) growth inhibition assay; format: cell-based; conditions: Homo sapiens, BT-474, activity range
Experimental: A growth inhibition assay was also employed for the evaluation of test compounds:
Assessment of Cytotoxicity by Sulforhodamine B (SRB) Assay: Calculation of 50% Inhibitory Concentration (IC50).
• 1) Determine cell number by haemocytometer. • 2) Using an 8 channel multipipettor, add 160 μl of the cell suspension (3600 cells/well or 2×10^4 cells/ml) to each well of a 96-well microtitre plate. • 3) Incubate overnight at 37° C. in a CO2 incubator.
• 4) Stock solutions of drugs are prepared, and serial dilutions of each drug are performed in medium to give final concentrations in wells. • 5) Using a multipipettor, 40 μl of drug (at 5× final concentration) is added to quadruplicate wells. • 6) Control wells are at either side of the 96 well plates, where 40 μl of medium is added. • 7) Incubate plates in CO2 incubator for […].
• 8) Tip off medium into sink and immerse plate slowly into 10% ice cold trichloroacetic acid (TCA). Leave for about 30 mins on ice. • 9) Wash plates three times in tap water by immersing the plates into baths of tap water and tipping it off. • 10) Dry in incubator. • 11) Add 100 μl of 0.4% SRB in 1% acetic acid to each well (except the last row (right hand) of the 96 well plate, this is the 0% control, ie no drug, no stain. The first row will be the 100% control with no drug, but with stain). Leave for 15 mins. • 12) Wash off unbound SRB stain with four washes of 1% acetic acid. • 13) Dry plates in incubator. • 14) Solubilised SRB using […] of 10 mM Tris base and put plates on plate shaker for 5 mins. • 15) Determine absorbance at 540 nm using a plate reader. Calculate mean absorbance for quadruplicate wells and express as a percentage of value for control, untreated wells. • 16) Plot % absorbance values versus log drug concentration and determine the GI50., ie the concentration of test compound required to inhibit growth of the cells by 50%.
The compounds tested in the above assay were assigned to one of three activity ranges, namely A=<0.5 μM; B=0.5 μM to 10 μM; C=>10 μM, and the results for six of the compounds of the invention are reported in Table 2.

[1] = read-out: activity in the fluorescence polarization assay
[2] = read-out: ACTIVITY* (Activity in the FP binding assay)

T1 sequence (P08238 whole entry): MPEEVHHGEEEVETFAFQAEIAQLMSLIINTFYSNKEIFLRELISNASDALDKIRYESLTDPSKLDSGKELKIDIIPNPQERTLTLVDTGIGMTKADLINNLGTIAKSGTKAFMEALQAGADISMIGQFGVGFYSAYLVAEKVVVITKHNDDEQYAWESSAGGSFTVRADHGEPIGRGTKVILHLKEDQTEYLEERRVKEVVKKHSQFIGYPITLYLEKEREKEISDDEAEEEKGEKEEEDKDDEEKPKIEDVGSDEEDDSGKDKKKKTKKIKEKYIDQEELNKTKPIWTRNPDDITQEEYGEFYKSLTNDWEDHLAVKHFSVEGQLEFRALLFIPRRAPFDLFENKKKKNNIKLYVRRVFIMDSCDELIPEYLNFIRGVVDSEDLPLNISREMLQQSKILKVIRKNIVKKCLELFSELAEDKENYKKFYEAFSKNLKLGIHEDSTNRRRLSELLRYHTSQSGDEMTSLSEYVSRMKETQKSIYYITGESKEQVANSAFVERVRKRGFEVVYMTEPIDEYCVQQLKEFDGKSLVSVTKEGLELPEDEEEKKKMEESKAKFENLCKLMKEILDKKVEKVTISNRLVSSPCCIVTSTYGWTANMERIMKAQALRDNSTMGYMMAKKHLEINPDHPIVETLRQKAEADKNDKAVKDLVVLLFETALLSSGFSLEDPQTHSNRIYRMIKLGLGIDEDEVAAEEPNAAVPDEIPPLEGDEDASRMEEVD

Row | IC50 (human full-length HSP90; [1]) | GI50 (BT474 cells) | IC50 (human full-length HSP90; [2]) | Structure (SMILES)
1 | < 500 nM | 500 to 10000 nM | – | CCN(CC)CCSc1nc(-c2ccc(F)cc2C)c2c(C#N)c[nH]c2n1 [Example 19, 2-(2-Diethylamino-ethylsulfanyl)-4-(4-fluoro-2-methyl-phenyl)-7H-pyrrolo[2,3-d]pyrimidine-5-carbonitrile]
2 | < 500 nM | 500 to 10000 nM | – | CCN(CC)CCOc1nc(-c2cc(OC)c(Cl)cc2Cl)c2c(C#N)c[nH]c2n1 [Example 24, 4-(2,4-Dichloro-5-methoxy-phenyl)-2-(2-diethylamino-ethoxy)-7H-pyrrolo[2,3-d]pyrimidine-5-carbonitrile]
3 | < 500 nM | < 500 nM | – | CCN(CC)CCOc1cc(-c2nc(SCC(=O)NC)nc3[nH]cc(C#N)c23)c(Cl)cc1Cl [Example 28, 2-{5-Cyano-4-[2,4-dichloro-5-(2-diethylamino-ethoxy)-phenyl]-7H-pyrrolo[2,3-d]pyrimidin-2-ylsulfanyl}-N-methyl-acetamide]
4 | < 500 nM | < 500 nM | – | COc1cc(Cl)c(-c2nc(OCCN3CCC(F)(F)CC3)nc3[nH]cc(C#N)c23)cc1OC [Example 31, 4-(2-Chloro-4,5-dimethoxy-phenyl)-2-[2-(4,4-difluoro-piperidin-1-yl)-ethoxy]-7H-pyrrolo[2,3-d]pyrimidine-5-carbonitrile]
5 | – | 500 to 10000 nM | 500 to 10000 nM | CC(C)Sc1nc(-c2cc(OCc3ccccc3)c(Cl)cc2Cl)c2c(C#N)c[nH]c2n1 [Example 51]
6 | – | – | < 500 nM | COc1cc(Cl)c(-c2nc(SC)nc3[nH]cc(C#N)c23)cc1OCCN1CCC(F)(F)CC1 [Example 64]
7 | – | – | < 500 nM | COc1cc(Cl)c(-c2nc(OCCN3CC[C@@H](F)C3)nc3[nH]cc(C#N)c23)cc1OC [Example 65]
8 | – | – | < 500 nM | COc1cc(Cl)c(-c2nc(SC)nc3[nH]cc(C#N)c23)cc1OCCN1CCCC(F)(F)C1 [Example 66]
9 | – | – | < 500 nM | CCc1nc(-c2cc(OCCN(CC)CC)c(OC)cc2Cl)c2c(C#N)c[nH]c2n1 [Example 67]
10 | – | – | < 500 nM | CCN(CC)CCOc1cc(-c2nc(SC(C)C)nc3[nH]cc(C#N)c23)c(Cl)cc1OC [Example 68]
11 | – | – | 500 to 10000 nM | CCN(CC)CCNc1nc(-c2cc(OC)c(OC)cc2Cl)c2c(C#N)c[nH]c2n1 [Example 69]
12 | – | – | 500 to 10000 nM | COc1cc(Cl)c(-c2nc(C(C)C)nc3[nH]cc(C#N)c23)cc1OC [Example 70]
13 | – | – | < 500 nM | COc1cc(Cl)c(-c2nc(OCCN3CCC(F)CC3)nc3[nH]cc(C#N)c23)cc1OC [Example 71]
14 | – | < 500 nM | < 500 nM | COc1cc(Cl)c(-c2nc(SC)nc3[nH]cc(C#N)c23)cc1OCCN1CC[C@@H](F)C1 [Example 72]
15 | – | – | < 500 nM | COc1cc(Cl)c(-c2nc(SC)nc3[nH]cc(C#N)c23)cc1OCCN1CC[C@H](F)C1 [Example 73]
16 | – | – | < 500 nM | COc1cc(Cl)c(-c2nc(SC)nc3[nH]cc(C#N)c23)cc1OCCN1CCC(F)(F)C1 [Example 74]
17 | – | – | < 500 nM | COc1cc(Cl)c(-c2nc(SC(C)C)nc3[nH]cc(C#N)c23)cc1OCCN1CCC(F)(F)C1 [Example 75]
18 | – | – | < 500 nM | COc1cc(Cl)c(-c2nc(SC(C)C)nc3[nH]cc(C#N)c23)cc1OCCN1CCC(F)(F)CC1 [Example 76]

Row | IC50 (human full-length HSP90; [1]) | GI50 (BT474 cells) | IC50 (human full-length HSP90; [2]) | Structure (SMILES)
19 | – | – | < 500 nM | CSc1nc(-c2cc3c(cc2Cl)OCO3)c2c(C#N)c[nH]c2n1 [Example 77]
20 | – | – | < 500 nM | COc1cc(Cl)c(-c2nc(SC(C)(C)C)nc3[nH]cc(C#N)c23)cc1OCCN1CC[C@@H](F)C1 [Example 78]
21 | – | – | < 500 nM | CCN(CC)CCOc1cc(-c2nc(OC(C)C)nc3[nH]cc(C#N)c23)c(Cl)cc1OC [Example 79]
22 | – | – | < 500 nM | CCN(CC)CCOc1cc(-c2nc(OC3CCCC3)nc3[nH]cc(C#N)c23)c(Cl)cc1OC [Example 80]
23 | – | – | < 500 nM | CCN(CC)CCOc1cc(-c2nc(SC3CCCC3)nc3[nH]cc(C#N)c23)c(Cl)cc1OC [Example 81]
24 | – | – | 500 to 10000 nM | CCN(CC)CCOc1cc(-c2nc(CC(C)C)nc3[nH]cc(C#N)c23)c(Cl)cc1OC [Example 82]
25 | – | – | < 500 nM | COc1cc(Cl)c(-c2nc(SC(C)CN3CCC(F)(F)C3)nc3[nH]cc(C#N)c23)cc1OC (centres unmarked) [Example 83]
26 | – | – | < 500 nM | COc1cc(Cl)c(-c2nc(Sc3ccccc3)nc3[nH]cc(C#N)c23)cc1OC [Example 84]
27 | – | – | < 500 nM | COc1cc(Cl)c(-c2nc(Sc3nccs3)nc3[nH]cc(C#N)c23)cc1OC [Example 85]
28 | – | – | < 500 nM | COc1cc(Cl)c(-c2nc(Oc3ccccc3)nc3[nH]cc(C#N)c23)cc1OC [Example 86]
29 | – | – | < 500 nM | COc1cc(Cl)c(-c2nc(Cc3ccccc3)nc3[nH]cc(C#N)c23)cc1OC [Example 87]
30 | – | – | < 500 nM | CCOC(=O)C(C)Sc1nc(-c2cc(OCCN3CCC(F)(F)C3)c(OC)cc2Cl)c2c(C#N)c[nH]c2n1 (centres unmarked) [Example 88]
31 | – | – | < 500 nM | COc1cc(Cl)c(-c2nc(SC(C)C(=O)O)nc3[nH]cc(C#N)c23)cc1OCCN1CCC(F)(F)C1 (centres unmarked) [Example 89]
32 | – | – | < 500 nM | COc1cc(Cl)c(-c2nc(SC(C)(C)CN3CCC(F)(F)C3)nc3[nH]cc(C#N)c23)cc1OC [Example 90]
33 | – | – | 500 to 10000 nM | COc1cc(Cl)c(-c2nc(Sc3nccn3C)nc3[nH]cc(C#N)c23)cc1OC [Example 91]
34 | – | – | < 500 nM | CCN(CC)CCOc1cc(-c2nc(Sc3nccs3)nc3[nH]cc(C#N)c23)c(Cl)cc1OC [Example 92]
35 | 500 to 10000 nM | – | – | CSc1nc(C(=O)N2Cc3ccccc3C2)c2c(C#N)c[nH]c2n1 [Example 93, 4-(1,3-Dihydro-isoindole-2-carbonyl)-2-methylsulfanyl-7H-pyrrolo[2,3-d]pyrimidine-5-carbonitrile]
